Each structure is given as a SMILES string.

The text below walks through data of patent EP0189101A2, “Compounds having mucolytic and bronchodilating activity, a process for their preparation and pharmaceutical composition containing them as active principle” (PROTER S.p.A., priority 1985, dated 1986).

In one series the test system is suspension of 4% mucine. The series can be described thus: in vitro mucolytic activity, viscosity of a 4% mucine suspension. The series is classed as biochemical. Particulars: 0,00625 M, after hydrolysis with rat serum. The text has this: More specifically in the test of "in vitro" mucolytic activity with a suspension of 4% mucine (II Farmaco, ed.prat.33-379, 1978), and the molar concentration being the same (0,00625 M), after hydrolysis with rat serum, the 2-f(theophyllin-7-yl)-methyloxysuccinoylthiSïpropionamido acetic acid caused a reduction of viscosity by 11,2% to take place, which is like that of tiopronin (11,5%) and higher than that of N-acetylcysteine (7,6%).

Series [1] concerns fluid of the respiratory tract. The series can be described thus: mucolytic-expectorant activity, fluorescein elimination in the fluid of the respiratory tract. Particulars: 1 mM/kg/os; in comparison with the controls. The series is classed as in vivo.
For series [2], the system named is shock induced by histamine. Nature of the series: antibronchospastic activity, shock induced by histamine. As to conditions: 0.25 mM/kg/i.p.; guinea pig; value after treatment. The series is classed as in vivo.
The subject of series [3] is spasm induced by acetylcholine. The series can be described thus: Konzett-Rossler test, spasm induced by acetylcholine. Format: in vivo. Particulars: spasm induced by acetylcholine (10 mcg/kg/e.v.); guinea pig. On the procedure: (§1) (0.0276-0.1406), like that of theophylline of 0.0395 mM/kg/e.v. […] (0.0133-0,893) which is definitely and significatively lower than that of theophylline (0.1026 (0.0508-0.2072). The bronchodilating activity of the compounds of formula I is consequently definitely higher than that of theophylline.

Series [4] deals with spasm induced by histamine. Nature of the series: Konzett-Rossler test, spasm induced by histamine. Format: in vivo. As to conditions: spasm induced by histamine (2 mcg/kg/e.v.); guinea pig. The protocol:
as §1

A further series can be described thus: acute toxicity. As to conditions: in vivo, ip; female mouse.
The test system of series [5] is cough induced by citric acid. The series can be described thus: anticough activity, cough induced by citric acid. Particulars: guinea pig.

As to `CC(SC(=O)CCC(=O)OCn1cnc2c1c(=O)n(C)c(=O)n2C)C(=O)NCC(=O)O` (centres unmarked) [2-[(theophyllin-7-yl)methyloxysuccinoylthio]-propionamido acetic acid], the reduction of viscosity in the series with suspension of 4% mucine was 11,2%. Moreover, the “increase of the escretion of the colouring compound” value in series [1] was found to be 86%. The compound further gave a shock resistance in series [2] of 291.7 ± 43.2 s. The compound further displayed an ED50 in series [3] of 0.0623 mM/kg/e.v. The compound further returned an ED in series [4] of 0.0345 mM/kg/e.v. Besides, the median lethal dose (LD50) in “acute toxicity” came to 481 mg/kg. For the same compound, in series [5] (100 mg/kg/i.p., in comparison with the controls), the “reduction of the cough” value turned out to be 79%.

`CC(=O)N[C@@H](CS)C(=O)O` [N-acetylcysteine]: in the series with suspension of 4% mucine, the reduction of viscosity was 7,6%.

`COc1ccc2c3c1O[C@H]1[C@@H](O)C=C[C@H]4[C@@H](C2)N(C)CC[C@@]341` [codeine phosphate]: the “reduction of the cough” value in series [5] (5 mg/kg/i.p.) was found to be 87%.

`Cn1c(=O)c2[nH]cnc2n(C)c1=O` [theophylline]: the shock resistance in series [2] worked out at 316.8 ± 27.3 s. This compound showed an ED50 in series [3] of 0.0395 mM/kg/e.v. For the same compound, the ED in series [4] is reported as 0.1026 (0.0508-0.2072) mM/kg/e.v.

For the compound `CC(S)C(=O)NCC(=O)O` (centres unmarked) [tiopronin], in the series with suspension of 4% mucine, the reduction of viscosity is 11,5%. Further, in series [1], the “increase of the escretion of the colouring compound” value worked out at 94%.
